Experimental data reported in patent US20260085071A1, “NOVEL CRYSTALLINE FORM OF 1-(8-BROMOPYRIDO[2,3- E][1,2,4]TRIAZOLO[4,3-A]PYRAZIN-4-YL)-NMETHYLAZETIDIN- 3-AMINE” (JW PHARMACEUTICAL CORPORATION, priority 2022, published 2026).

Key:
[1] = test system: inflammatory cells such as mast cells and eosinophils; settings: background statement, U.S. Pat. No. 9,586,959; cited from earlier work
histamine 4 receptor = histamine 4 receptor (Homo sapiens, UniProt Q9H3N8); settings: background statement, U.S. Pat. No. 9,586,959; cited from earlier work
Sequence of histamine 4 receptor (Q9H3N8 whole entry): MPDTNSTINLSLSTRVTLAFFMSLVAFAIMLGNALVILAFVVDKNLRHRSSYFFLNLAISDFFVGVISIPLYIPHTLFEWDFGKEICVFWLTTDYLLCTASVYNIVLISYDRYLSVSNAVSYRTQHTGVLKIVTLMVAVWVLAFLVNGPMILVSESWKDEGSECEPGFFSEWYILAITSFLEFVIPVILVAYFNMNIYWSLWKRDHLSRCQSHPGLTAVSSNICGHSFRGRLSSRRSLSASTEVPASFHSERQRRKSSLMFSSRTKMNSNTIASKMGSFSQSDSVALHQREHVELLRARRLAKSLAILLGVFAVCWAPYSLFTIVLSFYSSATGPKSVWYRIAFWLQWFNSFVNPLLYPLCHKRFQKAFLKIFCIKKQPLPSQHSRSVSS

[2] = Stress testing at high temperature and high humidity; format: physicochemical; settings: high temperature (60° C.) and high humidity (75%) for 4 weeks
[3] = Stability of polymorphic form during gentle drying; format: physicochemical; settings: pure polymorphic forms from crystallization experiments
[4] = Thermodynamic (thermal) stability of crystalline form; format: physicochemical; settings: solid crystalline form
Method: TGA experiments were conducted using a TGA550 instrument from TA Instruments. About 1-10 mg of sample was loaded into a ceramic pan for the measurements. The sample temperature was ramped from 25 to 500° C. at 10° C./min. Nitrogen was used as the purge gas at a flow rate of 50 mL/min.
DSC: Heating rate of 10° C./min under a nitrogen atmosphere. About 1-2 mg of sample was loaded into an open aluminum pan for the measurements. Instrument Q20 from TA Instruments.

| Compound | effects against histamine induced infiltration of inflammatory cells [1] | histamine 4 receptor inhibitory effect (histamine 4 receptor) | stability during stress testing [2] | stability during gentle drying [3] | thermodynamically stable up to [4] |
| --- | --- | --- | --- | --- | --- |
| CNC1CN(c2nc3ncc(Br)cc3n3cnnc23)C1 [1-(8-bromopyrido[2,3-e][1,2,4]triazolo[4,3-a]pyrazin-4-yl)-N-methylazetidin-3-amine] | suppressive effects | strong |  |  |  |
| CNC1CN(c2nc3ncc(Br)cc3n3cnnc23)C1 [Form A, 1-(8-bromopyrido[2,3-e][1,2,4]triazolo[4,3-a]pyrazin-4-yl)-N-methylazetidine-3-amine] |  |  | stable | stable | up to 273 °C |
